Patent US9394273B2, “Therapeutic prostaglandin receptor agonists” (Allergan, Inc., priority 2014, dated 2016)

Assays:
EP2 [1] = molecular target: T1, EP2 (Homo sapiens (Human), UniProt P43116); test: EP2 binding assay (Ki)
Description: (§1) U.S. patent application publication No. 20070129552, published on Jun. 7, 2007, incorporated by reference herein, describes the methods used to obtain the in vitro data in Table 1 below.

[2] = molecular target: T2, prostaglandin EP4 receptor (Homo sapiens (Human), UniProt P35408); test: EP4 cAMP functional assay; format: cell-based
T2 sequence (P35408 whole entry): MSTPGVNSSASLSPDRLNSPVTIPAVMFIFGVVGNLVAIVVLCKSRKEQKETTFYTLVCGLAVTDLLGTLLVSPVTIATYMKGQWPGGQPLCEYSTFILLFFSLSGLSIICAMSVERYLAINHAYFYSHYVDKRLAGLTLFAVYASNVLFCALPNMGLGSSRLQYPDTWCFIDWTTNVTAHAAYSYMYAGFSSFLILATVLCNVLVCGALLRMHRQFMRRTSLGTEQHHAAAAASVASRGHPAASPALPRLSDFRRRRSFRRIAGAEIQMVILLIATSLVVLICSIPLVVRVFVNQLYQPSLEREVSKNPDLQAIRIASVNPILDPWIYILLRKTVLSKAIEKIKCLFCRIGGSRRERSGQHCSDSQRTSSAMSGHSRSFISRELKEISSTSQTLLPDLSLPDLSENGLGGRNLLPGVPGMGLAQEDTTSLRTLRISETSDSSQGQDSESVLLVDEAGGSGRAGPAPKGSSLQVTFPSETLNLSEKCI
Description: as §1

[3] = molecular target: T2, prostaglandin EP4 receptor; test: EP4 binding assay (Ki); conditions: read-out: EP4 Ki EC50
Description: as §1

EP2 [4] = molecular target: T1, EP2; test: EP2 cAMP functional assay; format: cell-based
Description: as §1

EP3 = EP3 (Homo sapiens (Human), UniProt P43115); test: Other receptors FLIPR: EP3; format: cell-based; conditions: NA undefined in patent
EP3, sequence (P43115 whole entry): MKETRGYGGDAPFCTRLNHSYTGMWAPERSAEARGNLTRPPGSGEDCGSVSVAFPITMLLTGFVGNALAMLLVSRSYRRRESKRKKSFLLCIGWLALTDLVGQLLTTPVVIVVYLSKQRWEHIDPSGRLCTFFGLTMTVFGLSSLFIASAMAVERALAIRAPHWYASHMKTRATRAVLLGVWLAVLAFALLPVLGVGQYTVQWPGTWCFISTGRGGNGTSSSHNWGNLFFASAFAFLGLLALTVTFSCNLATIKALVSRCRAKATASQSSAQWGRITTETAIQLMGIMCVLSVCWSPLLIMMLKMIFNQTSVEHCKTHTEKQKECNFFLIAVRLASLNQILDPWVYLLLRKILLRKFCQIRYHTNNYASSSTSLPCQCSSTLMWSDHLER
Description: as §1

TP = TP (Homo sapiens (Human), UniProt P21731); test: Other receptors FLIPR: TP; format: cell-based; conditions: NA undefined in patent
TP, sequence (P21731 whole entry): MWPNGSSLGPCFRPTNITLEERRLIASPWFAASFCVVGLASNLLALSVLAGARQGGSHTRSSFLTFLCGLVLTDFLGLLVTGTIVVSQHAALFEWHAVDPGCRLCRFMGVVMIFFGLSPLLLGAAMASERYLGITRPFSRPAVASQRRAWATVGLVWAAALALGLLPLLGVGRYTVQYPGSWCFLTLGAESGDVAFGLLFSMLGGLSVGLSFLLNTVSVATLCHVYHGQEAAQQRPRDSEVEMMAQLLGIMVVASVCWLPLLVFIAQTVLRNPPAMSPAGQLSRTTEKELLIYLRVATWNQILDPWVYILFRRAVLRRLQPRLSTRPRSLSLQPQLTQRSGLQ
Description: as §1

T1 sequence (P43116 whole entry): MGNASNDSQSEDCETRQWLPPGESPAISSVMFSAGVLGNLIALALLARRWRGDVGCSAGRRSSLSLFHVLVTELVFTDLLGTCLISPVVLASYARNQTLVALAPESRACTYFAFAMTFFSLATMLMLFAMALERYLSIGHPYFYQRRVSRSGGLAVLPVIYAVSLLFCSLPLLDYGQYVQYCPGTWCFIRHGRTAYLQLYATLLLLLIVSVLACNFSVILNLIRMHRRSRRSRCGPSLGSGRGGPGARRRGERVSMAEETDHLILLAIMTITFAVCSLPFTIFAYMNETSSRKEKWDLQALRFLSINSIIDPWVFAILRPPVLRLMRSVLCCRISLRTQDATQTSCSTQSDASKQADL

| Structure (SMILES) | EP2 Ki (nM) (EP2 [1]) [K] | EC50 [2] [nM] | Ki [3] [nM] | EP2 cAMP EC50 (nM) (EP2 [4]) [K] | Ki (EP2 [1]) [nM] | EC50 (EP2 [4]) [nM] | EC50 (EP3) [nM] | EC50 (TP) [nM] | OTHER RECEPTORS FLIPR EC50 (nM): TP (TP) [nM] |
| --- | --- | --- | --- | --- | --- | --- | --- | --- | --- |
| O=C(O)c1ccc(CC[C@H]2C(=O)CC[C@@H]2/C=C/C(O)Cc2ccc3ccccc3c2)cc1 (single isomer, unassigned) [Entry 1] | >10 | 1 | 0.8 | – | – | – | – | – | – |
| O=C(O)c1ccc(CC[C@H]2C(=O)CC[C@@H]2/C=C/C(O)Cc2ccc3ccccc3c2)cc1 (single isomer, unassigned) [Entry 2] | >10 | 21 | 10 | – | – | – | – | – | – |
| O=C(O)c1ccc(CC[C@H]2C(=O)CC[C@@H]2/C=C/C(O)Cc2sc3ccccc3c2Cl)cc1 (single isomer, unassigned) [Entry 3, (E)-4-(2-(2-(4-(3-chlorobenzo[b]thiophen-2-yl)-3-hydroxybut-1-en-1-yl)-5-oxocyclopentyl)ethyl)benzoic acid] | >10 | 1280 | 2310 | >10 | – | – | – | – | – |
| O=C(O)c1ccc(CC[C@H]2C(=O)CC[C@@H]2/C=C/C(O)Cc2sc3ccccc3c2Cl)cc1 (single isomer, unassigned) [Entry 4, (E)-4-(2-(2-(4-(3-chlorobenzo[b]thiophen-2-yl)-3-hydroxybut-1-en-1-yl)-5-oxocyclopentyl)ethyl)benzoic acid] | >10 | 186 | 603 | >10 | – | – | – | – | – |
| O=C(O)c1ccc(CC[C@H]2C(=O)CC[C@@H]2/C=C/C(O)Cc2cccc(F)c2)cc1 (single isomer, unassigned) [Entry 5, (E)-4-(2-(2-(4-(3-fluorophenyl)-3-hydroxybut-1-en-1-yl)-5-oxocyclopentyl)ethyl)benzoic acid] | – | 1 | 40 | – | 3420 | 78 | – | – | – |
| O=C(O)c1ccc(CC[C@H]2C(=O)CC[C@@H]2/C=C/C(O)Cc2cccc(F)c2)cc1 (single isomer, unassigned) [Entry 6, (E)-4-(2-(2-(4-(3-fluorophenyl)-3-hydroxybut-1-en-1-yl)-5-oxocyclopentyl)ethyl)benzoic acid] | – | 0.04 | 2 | – | 1780 | 10 | 721 | 7190 | – |
| O=C(O)c1ccc(CC[C@H]2C(=O)CC[C@@H]2/C=C/C(O)Cc2cccc(Br)c2)cc1 (single isomer, unassigned) [Entry 9, (E)-4-(2-(2-(4-(3-bromophenyl)-3-hydroxybut-1-en-1-yl)-5-oxocyclopentyl)ethyl)benzoic acid] | – | – | – | – | 1450 | 278 | – | – | – |
| O=C(O)c1ccc(CC[C@H]2C(=O)CC[C@@H]2/C=C/C(O)Cc2cccc(Br)c2)cc1 (single isomer, unassigned) [Entry 10, (E)-4-(2-(2-(4-(3-bromophenyl)-3-hydroxybut-1-en-1-yl)-5-oxocyclopentyl)ethyl)benzoic acid] | – | – | – | – | 947 | 26 | 180 | 108 | – |
| O=C(O)c1ccc(CC[C@H]2C(=O)CC[C@@H]2/C=C/C(O)Cc2cccc(C(F)(F)F)c2)cc1 (single isomer, unassigned) [Entry 11, (E)-4-(2-(2-(3-hydroxy-4-(3-(trifluoromethyl)phenyl)but-1-en-1-yl)-5-oxocyclopentyl)ethyl)benzoic acid] | – | 16 | 90 | – | 3160 | 1010 | – | – | – |
| O=C(O)c1ccc(CC[C@H]2C(=O)CC[C@@H]2/C=C/C(O)Cc2cccc(C(F)(F)F)c2)cc1 (single isomer, unassigned) [Entry 12, (E)-4-(2-(2-(3-hydroxy-4-(3-(trifluoromethyl)phenyl)but-1-en-1-yl)-5-oxocyclopentyl)ethyl)benzoic acid] | – | 0.2 | 1 | – | 1310 | 35 | – | 218 | – |
| O=C(O)c1ccc(CC[C@H]2C(=O)CC[C@@H]2/C=C/C(O)Cc2ccc(F)cc2)cc1 (single isomer, unassigned) [Entry 19, (E)-4-(2-(2-(4-(4-fluorophenyl)-3-hydroxybut-1-en-1-yl)-5-oxocyclopentyl)ethyl)benzoic acid] | – | 38 | 902 | – | 9290 | – | – | – | – |
| O=C(O)c1ccc(CC[C@H]2C(=O)CC[C@@H]2/C=C/C(O)Cc2ccc(F)cc2)cc1 (single isomer, unassigned) [Entry 20, (E)-4-(2-(2-(4-(4-fluorophenyl)-3-hydroxybut-1-en-1-yl)-5-oxocyclopentyl)ethyl)benzoic acid] | – | 0.2 | 3 | – | 745 | 11 | 952 | 5600 | – |
| O=C(O)c1ccc(CC[C@H]2C(=O)CC[C@@H]2/C=C/C(O)Cc2cccc(Cl)c2)cc1 (stereo partly drawn) [Entry 7, (E)-4-(2-(2-(4-(3-chlorophenyl)-3-hydroxybut-1-en-1-yl)-5-oxocyclopentyl)ethyl)benzoic acid] | – | 2 | 2 | – | 2760 | 123 | – | 4830 | – |
| O=C(O)c1ccc(CC[C@H]2C(=O)CC[C@@H]2/C=C/C(O)Cc2ccc3ccsc3c2)cc1 (stereo partly drawn) [Entry 15, (E)-4-(2-(2-(4-(benzo[b]thiophen-6-yl)-3-hydroxybut-1-en-1-yl)-5-oxocyclopentyl)ethyl)benzoic acid] | >10 | 0.5 | 41 | – | – | – | 67 | – | < 10000 |
| COc1ccc2cc(CC(O)/C=C/[C@H]3CCC(=O)[C@@H]3CCc3ccc(C(=O)O)cc3)ccc2c1 (stereo partly drawn) [Entry 16, (E)-4-(2-(2-(3-hydroxy-4-(6-methoxynaphthalen-2-yl)but-1-en-1-yl)-5-oxocyclopentyl)ethyl)benzoic acid] | >10 | 728 | 2660 | – | – | – | – | – | – |
| COc1cc2ccccc2cc1CC(O)/C=C/[C@H]1CCC(=O)[C@@H]1CCc1ccc(C(=O)O)cc1 (stereo partly drawn) [Entry 17, (E)-4-(2-(2-(3-hydroxy-4-(3-methoxynaphthalen-2-yl)but-1-en-1-yl)-5-oxocyclopentyl)ethyl)benzoic acid] | >10 | – | 4620 | – | – | – | – | – | – |
| COc1ccc2ccc(CC(O)/C=C/[C@H]3CCC(=O)[C@@H]3CCc3ccc(C(=O)O)cc3)cc2c1 (stereo partly drawn) [Entry 18, (E)-4-(2-(2-(3-hydroxy-4-(7-methoxynaphthalen-2-yl)but-1-en-1-yl)-5-oxocyclopentyl)ethyl)benzoic acid] | >10 | 2 | 9 | – | – | – | – | – | – |

Next, values leading:

| EP2 Ki (nM) (EP2 [1]) [K] | EC50 [2] [nM] | Ki [3] [nM] | EP2 cAMP EC50 (nM) (EP2 [4]) [K] | Ki (EP2 [1]) [nM] | EC50 (EP2 [4]) [nM] | EC50 (EP3) [nM] | EC50 (TP) [nM] | OTHER RECEPTORS FLIPR EC50 (nM): TP (TP) [nM] | Structure (SMILES) |
| --- | --- | --- | --- | --- | --- | --- | --- | --- | --- |
| – | 4 | 64 | – | 2220 | 76 | – | – | – | O=C(O)c1ccc(CC[C@H]2C(=O)CC[C@@H]2/C=C/C(O)Cc2ccccc2F)cc1 (single isomer, unassigned) [Entry 21, (E)-4-(2-(2-(4-(2-fluorophenyl)-3-hydroxybut-1-en-1-yl)-5-oxocyclopentyl)ethyl)benzoic acid] |
| – | 0.3 | 4 | – | 1030 | 8 | 4670 | – | – | O=C(O)c1ccc(CC[C@H]2C(=O)CC[C@@H]2/C=C/C(O)Cc2ccccc2F)cc1 (single isomer, unassigned) [Entry 22, (E)-4-(2-(2-(4-(2-fluorophenyl)-3-hydroxybut-1-en-1-yl)-5-oxocyclopentyl)ethyl)benzoic acid] |
| – | 21 | 293 | – | 9320 | – | – | – | – | O=C(O)c1ccc(CC[C@H]2C(=O)CC[C@@H]2/C=C/C(O)Cc2ccc(F)c(F)c2)cc1 (single isomer, unassigned) [Entry 23, (E)-4-(2-(2-(4-(3,4-difluorophenyl)-3-hydroxybut-1-en-1-yl)-5-oxocyclopentyl)ethyl)benzoic acid] |
| – | 0.3 | 3 | – | 1530 | 30 | 1510 | 2450 | – | O=C(O)c1ccc(CC[C@H]2C(=O)CC[C@@H]2/C=C/C(O)Cc2ccc(F)c(F)c2)cc1 (single isomer, unassigned) [Entry 24, (E)-4-(2-(2-(4-(3,4-difluorophenyl)-3-hydroxybut-1-en-1-yl)-5-oxocyclopentyl)ethyl)benzoic acid] |
| – | 30 | 585 | – | 3150 | 164 | – | – | – | O=C(O)c1ccc(CC[C@H]2C(=O)CC[C@@H]2/C=C/C(O)Cc2cccc(F)c2F)cc1 (single isomer, unassigned) [Entry 25, (E)-4-(2-(2-(4-(2,3-difluorophenyl)-3-hydroxybut-1-en-1-yl)-5-oxocyclopentyl)ethyl)benzoic acid] |
| – | 0.2 | 2 | – | 1240 | 8 | 9950 | – | – | O=C(O)c1ccc(CC[C@H]2C(=O)CC[C@@H]2/C=C/C(O)Cc2cccc(F)c2F)cc1 (single isomer, unassigned) [Entry 26, (E)-4-(2-(2-(4-(2,3-difluorophenyl)-3-hydroxybut-1-en-1-yl)-5-oxocyclopentyl)ethyl)benzoic acid] |
| – | 18 | 457 | – | 3630 | 125 | – | – | – | O=C(O)c1ccc(CC[C@H]2C(=O)CC[C@@H]2/C=C/C(O)Cc2cc(F)ccc2F)cc1 (single isomer, unassigned) [Entry 27, (E)-4-(2-(2-(4-(2,5-difluorophenyl)-3-hydroxybut-1-en-1-yl)-5-oxocyclopentyl)ethyl)benzoic acid] |
| – | 0.2 | 5 | – | 1300 | 10 | 5990 | – | – | O=C(O)c1ccc(CC[C@H]2C(=O)CC[C@@H]2/C=C/C(O)Cc2cc(F)ccc2F)cc1 (single isomer, unassigned) [Entry 28, (E)-4-(2-(2-(4-(2,5-difluorophenyl)-3-hydroxybut-1-en-1-yl)-5-oxocyclopentyl)ethyl)benzoic acid] |
